Values quoted from earlier work as cited in patent US20070282422A1, “Medical devices and methods for local delivery of elastin-stabilizing compounds” (Cook Incorporated, priority 2006, published 2007).

Experiments:
aortic elastin = conditions: lyophilized aortic elastin strips in buffered solutions of 0.3%-0.8% tannic acid
[1] = system: elastin in ascending porcine aorta; conditions: tannic concentrations of about 0.3%

Tannic acid
reduced the susceptibility of the elastin towards elastase (aortic elastin): about 50% | elastin stabilization [1]: elastin stabilization
